Measured values: patent US6605614B2, “[1,8] naphthyridine derivatives having antiviral activity” (BioChem Pharma Inc., priority 1999, dated 2003)
Structures can show the parent of a compound that is named as a salt.

What was measured:
BVDV(NADL) = test: WST-1 based BVDV anti-viral assay (CPE reduction in infected MDBK cells); assay type: cell-based; details: Bovine viral diarrhea virus isolates and strains, 96 h, MDBK cells infected with cytopathic BVDV (NADL), MOI 0.006 to 0.01, 4 days incubation, WST-1 readout, read-out: BVDV antiviral effect IC50
Protocol: Currently, the WST-1 based BVDV assay, is being used as surrogate to evaluate potential anti-HCV agents since BVDV (bovine viral diarrhea virus) shares functional homology with the HCV.
To determine the anti-viral effect of the compounds, MDBK cells were infected with the cytopathic strain of BVDV(NADL) using a 0.006 to 0.01 MOI. 3000 cells were then seeded in each well of a 96-well plate containing the compound. The final volume was 200 μl of media per wells. […] Cell culture was then incubated for another 2 hrs at 37° C., after which 20 μl of 10% SDS was added to each well in order to inactivate the virus and the OD at 450 nm was determined using a microplate reader (Dynatech MR5000). […]

[1] = Compound toxicity, WST-1, non-infected MDBK cells; assay type: cell-based; details: bovine, 4 days incubation, WST-1 readout
Protocol: To determine the anti-viral effect of the compounds, MDBK cells were infected with the cytopathic strain of BVDV(NADL) using a 0.006 to 0.01 MOI. 3000 cells were then seeded in each well of a 96-well plate containing the compound. The final volume was 200 μl of media per wells. […] Cell culture was then incubated for another 2 hrs at 37° C., after which 20 μl of 10% SDS was added to each well in order to inactivate the virus and the OD at 450 nm was determined using a microplate reader (Dynatech MR5000).
In parallel, the same experiment was performed using non-infected cells to determine the compound toxicity. […]

Row | SMILES | IC50 (BVDV(NADL)) | CC50 at 4 days [1]
1 | O=C(Nc1cccc([N+](=O)[O-])c1)c1ccc2cccnc2n1 [Compound #19, [1,8] naphthyridine-2-carboxylic acid (3-nitrophenyl)-amide] | ~1.7 µM | > 68 µM
2 | O=C(NCc1ccccc1)c1ccc2cccnc2n1 [Compound #2, [1,8] naphthyridine-2-carboxylic acid benzylamide] | < 76 µM | > 76 µM
3 | CC[C@@H](C)Oc1ccccc1CNC(=O)c1ccc2cccnc2n1 [Compound #10, (−)-[1,8] naphthyridine-2-carboxylic acid 2-sec-butoxy-benzylamide] | > 6 µM | > 6 µM
4 | O=C(Nc1ccccn1)c1ccc2cccnc2n1 [Compound #15, [1,8] naphthyridine-2-carboxylic acid pyridin-2-ylamide] |  | > 79.9 µM
5 | COc1cccc(CNC(=O)c2ccc3cccnc3n2)c1 [Compound #4, [1,8] naphthyridine-2-carboxylic acid 3-methoxy-benzylamide] | ~6.8 µM | > 68.2 µM
6 | COc1ccc(CNC(=O)c2ccc3cccnc3n2)cc1 [Compound #3, [1,8] naphthyridine-2-carboxylic acid 4-methoxy-benzylamide] | ~1.7 µM | > 68.2 µM
7 | O=C(NCc1ccccc1Cl)c1ccc2cccnc2n1 [Compound #17, [1,8] naphthyridine-2-carboxylic acid 2-chloro-benzylamide] | ~3.6 µM | > 67.2 µM
8 | O=C(Nc1ccccc1F)c1ccc2cccnc2n1 [Compound #24, [1,8] naphthyridine-2-carboxylic acid (2-fluoro-phenyl)-amide] | ~7.5 µM | > 74.8 µM
9 | O=C(Nc1cccc(C(F)(F)F)c1)c1ccc2cccnc2n1 [Compound #30, [1,8] naphthyridine-2-carboxylic acid (phenyl-3-trifluoromethyl)-amide] | ~0.6 µM | 6.3 µM
10 | O=C(Nc1ccccc1)c1ccc2cccnc2n1 [Compound #28, [1,8] naphthyridine-2-carboxylic acid phenyl-amide] |  | > 80.2 µM
11 | O=C(NCc1ccccn1)c1ccc2cccnc2n1 [Compound #13, [1,8] naphthyridine-2-carboxylic acid (pyridin-2-ylmethyl)-amide] |  | > 75.7 µM
12 | O=C(NCc1cccc(C(F)(F)F)c1)c1ccc2cccnc2n1 [Compound #31, [1,8] naphthyridine-2-carboxylic acid (phenylmethyl-3-trifluoromethyl)-amide] | ~3 µM | > 60.4 µM
13 | O=C(Nc1cccnc1)c1ccc2cccnc2n1 [Compound #29, [1,8] naphthyridine-2-carboxylic acid pyridin-3-yl-amide] | ~3.2 µM | > 79.9 µM
14 | O=C(Nc1nc2ccccc2s1)c1ccc2cccnc2n1 [Compound #23, [1,8] naphthyridine-2-carboxylic acid benzothiazol-2-ylamide] |  | > 6.5 µM
15 | O=C(NCc1ccccc1F)c1ccc2cccnc2n1 [Compound #16, [1,8] naphthyridine-2-carboxylic acid 2-fluoro-benzylamide] | ~1.1 µM | > 71.1 µM
16 | COc1ccccc1CNC(=N)c1ccc2cccnc2n1 [Compound #27, N-(2-methoxy-benzyl)-[1,8]naphthyridine-2-carboxamidine trifluoroacetate] | ~0.33 µM | > 63.2 µM
17 | CC(C)Oc1ccccc1CNC(=O)c1ccc2cccnc2n1 [Compound #8, [1,8] naphthyridine-2-carboxylic acid 2-isopropoxy-benzylamide] | < 62.2 µM | > 62.2 µM
18 | O=C(Nc1nccs1)c1ccc2cccnc2n1 [Compound #22, [1,8] naphthyridine-2-carboxylic acid thiazol-2-ylamide] |  | > 78 µM
19 | O=C(NCc1cccnc1)c1ccc2cccnc2n1 [Compound #12, [1,8] naphthyridine-2-carboxylic acid (pyridin-3-ylmethyl)-amide] | ~18.9 µM | > 75.7 µM
20 | COc1cc(OC)c(CNC(=O)c2ccc3cccnc3n2)c(OC)c1 [Compound #5, [1,8] naphthyridine-2-carboxylic acid 2,4,6-trimethoxy-benzylamide] | ~1.1 µM | > 56.6 µM
